In patent US20210138090A1, “uPAR targeting peptide for use in peroperative optical imaging of invasive cancer” (FLUOGUIDE A/S, priority 2014, published 2021):
Square brackets hold non-standard residues; d marks the D form. Peptide text beside a SMILES is read from it. * marks the point of attachment. IRDye800CW = CC1(C)C(/C=C/C2=C(Oc3ccc(S(=O)(=O)O)cc3)C(=C/C=C3/N(CCCCS(=O)(=O)O)c4ccc(S(=O)(=O)O)cc4C3(C)C)/CCC2)=[N+](CCCCCC(=O)*)c2ccc(S(=O)(=O)[O-])cc21; Cha = N[C@@H](CC1CCCCC1)C(=O)O; AEEA = NCCOCCOCC(=O)O

Key:
[1] = photostability under continuous laser exposure; format: physicochemical
Procedure: The photostability was evaluated by a factor 2 dilution series with four samples from 0.23-1.8 nM IRDye800-AE344 in 100 μL phosphate buffered saline (PBS) placed in a black 96-well plate. The well was placed in a black box with the Fluobeam mounted in the top at a distance of 23 cm from the well plate. Image acquisition was performed at 0 min, 10 min, 15 min, 20 min, 0.5 h, 1 h, 2 h, 3 h, 6 h, 10 h, 15 h, 24 h. Each dilution sample was normalized to time point 0 and the data from all four samples were pooled.

[2] = tested on: orthotopic GBM (U-87 MG-luc2 cells); experiment: dynamic NIR imaging of orthotopic GBM on cross sectioned brain (Fluobeam); format: in vivo, mice; conditions: for tumor mean fluorescence intensity (MFI): 333 ms exposure
Procedure: All experimental procedures in animals were carried out in accordance with the approval by The Animal Experiments Inspectorate, Denmark. 7-10-week-old female nude mice (strain: Rj:NMRI-Foxn1nu/nu, JANVIER LABS, France) were orthotopically xenografted with U-87 MG-luc2 cells.
The orthotopic GBM tumor model was established by inoculation of 500.000 cells in 10 μL ice cold PBS in the right hemisphere (1.5 mm lateral and 0.5 mm posterior to the bregma at 2 mm depth) using a stereotaxic frame (KOPF INSTRUMENTS, Tujunga, Calif., USA) with the automated microinjection pump UMP3 (WPI, Sarasota, Fla., USA). The cells were injected over 5 min with the syringe kept in place for further 3 min before retraction. Tumor growth was subsequently monitored on MRI with the BioSpec 7T (Bruker, Billerica, Mass., USA) with axial and coronal T2-wighted sequences. When the tumor size reached 2-17 mm^3, the animals were included in the fluorescence imaging protocol.
All image acquisition was performed with the Fluobeam system with (Fluosoft version: 2.2.1) (Fluoptics, Grenoble, France). To characterize the in vivo biodistribution and tumor imaging properties, IRDye800-AE344 was administered through tail vein injection into all the GBM bearing mice (n=35) at four different doses: 1 nmol, 3 nmol, 6 nmol, and 12 nmol. Two mice were sacrificed for each time point and the brain was removed and cross sectioned through the tumor for imaging. […] Accordingly, image acquisition was performed at following time points after injection: • 1 nmol: 0.5 h, 1 h, and 2 h • 3 nmol: 1 h, 2 h, 3 h, and 5 h • 6 nmol: 1 h, 3 h, 6 h, and 12 h • 12 nmol: 1 h, 3 h, 5 h, 10 h, 15 h, and 24 h
Images were analyzed and processed in ImageJ 1.52a, NIH, USA. Signal measurements were performed on the raw images generated by the Fluoptics system. Tumor signal was measured as a mean fluorescence intensity of the whole tumor and background signal was measured as the mean of a representative area with no tumor on the contralateral hemisphere. Presented pictures are contrast enhanced in ImageJ with the Contrast Enhancement (Saturated pixels: 0.3%).

CC(C)C[C@H](NC(=O)[C@H](Cc1ccc(O)cc1)NC(=O)[C@@H](CCCNC(=N)N)NC(=O)[C@@H](CO)NC(=O)[C@H](Cc1ccccc1)NC(=O)[C@H](CC1CCCCC1)NC(=O)[C@H](CC(=O)O)NC(=O)COCCOCCNC(=O)COCCOCCNC(=O)[C@H](CCC(=O)O)NC(=O)[C@H](CCC(=O)O)NC(=O)CCCCC[N+]1=C(/C=C/C2=C(Oc3ccc(S(=O)(=O)O)cc3)C(=C/C=C3/N(CCCCS(=O)(=O)O)c4ccc(S(=O)(=O)O)cc4C3(C)C)/CCC2)C(C)(C)c2cc(S(=O)(=O)[O-])ccc21)C(=O)N[C@@H](Cc1c[nH]c2ccccc12)C(=O)N[C@@H](CO)C(=O)O [IRDye800CW-AE344, IRDye800-Glu-Glu-O2Oc-O2Oc-Asp-Cha-Phe-D-ser-D-arg-Tyr-Leu-Trp-Ser-OH] (IRDye800CW-EE[AEEA][AEEA]D[Cha]F[dS][dR]YLWS-OH)
preserved fluorescence intensity (photostability) ([1]; continuous laser exposure for 1 h): 84%
preserved fluorescence intensity (photostability) ([1]; continuous laser exposure, after 2 h): 62%
maximal TBR ([2]; 1 nmol, at 0.5 h): 4.4
tumor mean fluorescence intensity (MFI) ([2]; 1 nmol, at time of maximal TBR (0.5 h)): 29 a.u.
maximal TBR ([2]; 3 nmol, at 1 h): 6.6
tumor mean fluorescence intensity (MFI) ([2]; 3 nmol, at time of maximal TBR (1 h)): 77 a.u.
TBR ([2]; 6 nmol, 1 h): 4.7
tumor MFI ([2]; 6 nmol, 1 h): 108 a.u.
tumor mean fluorescence intensity (MFI) ([2]; 6 nmol, 3 h): 82 a.u.
TBR (highest) ([2]; 6 nmol, 3 h after injection): 7.0
TBR ([2]; 6 nmol, 6 h): 6.1
TBR ([2]; 6 nmol, 12 h): 4.5
decrease in tumor MFI ([2]; 6 nmol, from 1 h to 3 h): 24%
TBR ([2]; 6 nmol, from 1 h to 12 h after injection): above 4.5
peak time of TBR ([2]; 12 nmol): 15 h
tumor MFI relative to that at 6 nmol ([2]; 12 nmol): 58%
maximal TBR ([2]; 12 nmol, at 15 h): 6.7
tumor mean fluorescence intensity (MFI) ([2]; 12 nmol, at time of maximal TBR (15 h)): 48 a.u.
